Laboratory results from the supplement of paper PMC4862054.

Assays:
Settings in all cases: incubation time: 72 h
[1] = system: MDA-MB-231; assay: normalised response (% of control), CellTox Green; higher = less cell death (100 = DMSO, 0 = benzethonium chloride kill control)
Summary of the method: (§1)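 Breast cancer cell lines, seeded at 20 µl suspension per well, were incubated for 72 h in 384-well plates containing compound at 5 concentrations. These concentrations rose in 10-fold steps over a 10,000-fold range set for each compound. CellTox Green fluorescence (485/520 nm) was read, then CellTiter-Glo luminescence after 10 min at room temperature, and each plate was normalised to 0.1 % DMSO (100) and a positive kill control (0). Values are normalised signals, each at one concentration.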

[2] = system: CAL-120; assay: as above
Summary of the method: as §1

[3] = system: CAL-148; assay: as above
Summary of the method: as §1

[4] = system: CAL-51; assay: as above
Summary of the method: as §1

[5] = system: MFM-223; assay: as above
Summary of the method: as §1

[6] = system: DU-4475; assay: as above
Summary of the method: as §1

[7] = system: HCC1937; assay: as above
Summary of the method: as §1

[8] = system: MDA-MB-453; assay: as above
Summary of the method: as §1

[9] = system: Hs578T; assay: as above
Summary of the method: as §1

[10] = system: BT-474; assay: as above
Summary of the method: as §1

[11] = system: HDQ-P1; assay: as above
Summary of the method: as §1

[12] = system: CAL-85-1; assay: as above
Summary of the method: as §1

[13] = system: HCC1143; assay: as above
Summary of the method: as §1

[14] = system: HCC1599; assay: as above
Summary of the method: as §1

[15] = system: MDA-MB-468; assay: as above
Summary of the method: as §1

[16] = system: MCF-10A; assay: as above
Summary of the method: as §1

[17] = system: MDA-MB-436; assay: as above
Summary of the method: as §1

[18] = system: BT-549; assay: as above
Summary of the method: as §1

[19] = system: MDA-MB-231; assay: normalised response (% of control), CellTiter-Glo; higher = more viable cells (100 = DMSO, 0 = benzethonium chloride kill control)
Summary of the method: as §1

[20] = system: SK-BR-3; assay: as above
Summary of the method: as §1

[21] = system: CAL-120; assay: as above
Summary of the method: as §1

[22] = system: CAL-148; assay: as above
Summary of the method: as §1

[23] = system: CAL-51; assay: as above
Summary of the method: as §1

[24] = system: MFM-223; assay: as above
Summary of the method: as §1

[25] = system: DU-4475; assay: as above
Summary of the method: as §1

[26] = system: HCC1937; assay: as above
Summary of the method: as §1

[27] = system: MDA-MB-453; assay: as above
Summary of the method: as §1

[28] = system: Hs578T; assay: as above
Summary of the method: as §1

[29] = system: BT-474; assay: as above
Summary of the method: as §1

[30] = system: HDQ-P1; assay: as above
Summary of the method: as §1

[31] = system: CAL-85-1; assay: as above
Summary of the method: as §1

[32] = system: HCC1143; assay: as above
Summary of the method: as §1

[33] = system: HCC1599; assay: as above
Summary of the method: as §1

[34] = system: MDA-MB-468; assay: as above
Summary of the method: as §1

[35] = system: MCF-10A; assay: as above
Summary of the method: as §1

[36] = system: MDA-MB-436; assay: as above
Summary of the method: as §1

[37] = system: BT-549; assay: as above
Summary of the method: as §1

| SMILES | normalised response [1] | normalised response [2] | normalised response [3] | normalised response [4] | normalised response [5] | normalised response [6] | normalised response [7] | normalised response [8] | normalised response [9] | normalised response [10] | normalised response [11] | normalised response [12] | normalised response [13] | normalised response [14] | normalised response [15] | normalised response [16] | normalised response [17] | normalised response [18] | normalised response [19] | normalised response [20] | normalised response [21] | normalised response [22] | normalised response [23] | normalised response [24] | normalised response [25] | normalised response [26] | normalised response [27] | normalised response [28] | normalised response [29] | normalised response [30] | normalised response [31] | normalised response [32] | normalised response [33] | normalised response [34] | normalised response [35] | normalised response [36] | normalised response [37] |
| --- | --- | --- | --- | --- | --- | --- | --- | --- | --- | --- | --- | --- | --- | --- | --- | --- | --- | --- | --- | --- | --- | --- | --- | --- | --- | --- | --- | --- | --- | --- | --- | --- | --- | --- | --- | --- | --- |
| CCn1c(-c2nonc2N)nc2cnc(Oc3cccc(NC(=O)c4ccc(OCCN5CCOCC5)cc4)c3)cc21 (1000 nM) | 79.5% | 99% | 83.5% | 79.7% | 101% | 95.2% | 73.9% | 98.7% | 96.5% | 101% | 107% | 109% | 95.2% | 95% | 111% | 104% | 88.7% | 113% | 80.5% | 81.8% | 72.6% | 86.7% | 83.2% | 94.2% | 91.8% | 98.2% | 95.6% | 73.5% | 82.6% | 89.9% | 102% | 97.9% | 91.3% | 83% | 75.9% | 98.1% | 73.1% |
| Nc1cc(C(F)(F)F)c(-c2cc(N3CCOCC3)nc(N3CCOCC3)n2)cn1 [Buparlisib] (1000 nM) | 80% | 100% | 91.7% | 107% | 97.5% | 95.6% | 96.8% | 98.9% | 107% | 94.7% | 98.7% | 106% | 95.9% | 95.4% | 165% | -21.3% | 90% | 113% | 90.3% | 84% | 88% | 96.2% | 90.4% | 53.3% | 82.9% | 89.5% | 99% | 91.1% | 99.8% | 70.9% | 95.1% | 94% | 102% | 82.9% | 55.6% | 102% | 89.6% |
| CNC(=O)c1cccc(-c2ccc3c(N4CCOC[C@@H]4C)nc(N4CCOC[C@@H]4C)nc3n2)c1 [AZD2014] (1000 nM) | 104% | 105% | 46.1% | 92.3% | 61.1% | 102% | 70.8% | 102% | 102% | 96.9% | 100% | 104% | 97.5% | 92.1% | 132% | 104% | 82.4% | 104% | 57.8% | 24.3% | 32.5% | 35.1% | 28.8% | 33.7% | 67.9% | 56.7% | 39.8% | 43.6% | 59.5% | 40.2% | 36.9% | 36.9% | 98.5% | 43.3% | 46.5% | 51.6% | 34.5% |
| Cc1cc(Nc2cc(CN3CCOCC3)c3nc(C)c(Cc4ccc(Cl)cc4F)n3n2)n[nH]1 [Gandotinib] (1000 nM) | 101% | 97.4% | 104% | 71.4% | 33% | 102% | 101% | 107% | 101% | 104% | 105% | 78.5% | 97% | 104% | 99.5% | 90.8% | 66.1% | 119% | 70.7% | 82.4% | 90.4% | 96.7% | 55% | 69.7% | 99.9% | 96.7% | 107% | 86.7% | 75.8% | 90% | 78.1% | 88.6% | 124% | 53.1% | 96.6% | 86.4% | 77% |
| CCOC(=O)CCNc1cc(N2CCc3ccccc3CC2)nc(-c2ccccn2)n1 [GSK-J4] (10000 nM) | 57.7% | 87.7% | 53.5% | 52.1% | 76.9% | 79.9% | 100% | 88.5% | -14.7% | -18.4% | 49.9% | 2.31% | 68.1% | 80.2% | 40.1% | 89.3% | 88.8% | 81.8% | 30.7% | 57.2% | 61.7% | 10.1% | 12.2% | 42.3% | 30.6% | 49.4% | 33.1% | 59.3% | 44.7% | 56.3% | 20.1% | 41.2% | 45.9% | 12.7% | 45.2% | 22.8% | 20.8% |
| COc1cc2c(NC3CCN(C(C)C)CC3)nc(N3CCC(F)(F)CC3)nc2cc1OCCCN1CCCC1 [UNC0642] (1000 nM) | 92.8% | 96.9% | 94.5% | 98% | 88.9% | 96.4% | 108% | 102% | 67.8% | 97.4% | 104% | 97.7% | 102% | 97.6% | 146% | 90.6% | 61.8% | 86.2% | 95.4% | 96.4% | 89% | 89.1% | 108% | 91.2% | 98.7% | 94% | 94.6% | 100% | 109% | 99.7% | 93.2% | 91.2% | 93.1% | 85.9% | 84.6% | 90.9% | 92.4% |
